According to US4457919A, “Method of imparting immunomodulating, antiviral or antitumor activity” (Newport Pharmaceutical International, Inc., priority 1982, dated 1984):
Read-outs that look alike come from different tables or passages of the source.

Experiments:
[1] = tested on: Influenza virus (A sub-type)
[2] = tested on: viruses, immune response, leukemic lymphocytes; conditions: cited from earlier work
mouse spleen cells = assay: PHA mitogen-induced lymphocyte proliferation using murine spleen cells (in vitro); assay type: cell-based; conditions: for Cpm Incorp. +PHA: with PHA; for Cpm Incorp. -PHA: without PHA
From the text: 1. Mitogen induced lymphocyte proliferation using murine spleen cells (in vitro).

[3] = Blood levels after i.p. administration to mice; assay type: in vivo; conditions: for Convertible to NPT 15392, Biological: Mouse: Table 11 summary; for Blood Level of NPT 15458: i.p., 360 μm/kg of compound administered
From the text: This clearly establishes the fact that NPT 15458 and NPT 15457 can produce NPT 15392 in vivo and further at least one of these derivatives gives much higher blood levels allowing for greater activity.

L1210 (mouse) = assay: Inhibition of growth of L1210 mouse leukemia cells; assay type: cell-based; conditions: 10 μg/ml
Method: (§1) Effect of Erythro-9-(2-Acetoxy-3-Nonyl)-Hypoxanthine on Growth of Tumor (Leukemia) Cells In Vivo
The activity of one of these agents, NPT 15458 as inhibitors of the growth of abnormal lymphocytes has been determined. […] A 40% inhibition of L-1210 cells was effected by NPT 15458 at 10 μg/ml.

8068 (Human) = assay: Inhibition of growth of 8068 human tumor (leukemia) cells; assay type: cell-based; conditions: 10 μg/ml
From the text: as §1

[4] = tested on: Vero Cells, Liver Homogenate, and Human Peripheral Blood Lymphocytes; assay: Conversion of pro-drugs to NPT 15392 by animal cells and tissues, stated in words; assay type: in vitro ADME; conditions: NPT 15458 compared with NPT 15457
[5] = Mus musculus, Lymphocyte, 10 ng/ml, read-out: D/C (S.I. drug / control)

SMILES	% Inhibition of Influenza Virus Growth ([1]; 3.6 nmoles/ml) [%]	% Inhibition of Influenza Virus Growth ([1]; 10.8 nmoles/ml) [%]	% Inhibition of Influenza Virus Growth ([1]; 36 nmoles/ml) [%]	% Inhibition of Influenza Virus Growth ([1]; .36 nmoles/ml) [%]	Antiviral activity in vitro (in words) [1]	S.I. (stimulation index) (mouse spleen cells; 10 ng/ml)	Cpm Incorp. +PHA (mouse spleen cells; 10 ng/ml)	Cpm Incorp. -PHA (mouse spleen cells; 10 ng/ml) [Cpm]	fold induction at 0.01 µg/mL (mouse spleen cells; [5])	Convertible to NPT 15392, Biological: Mouse [3]	also measured
CCCCCC[C@H]([C@H](C)O)n1cnc2c(=O)[nH]cnc21 (relative stereo) [NPT 15392, erythro-9-(2-hydroxy-3-nonyl)-hypoxanthine, reference compound]	30	42	73	20	Yes	588	68,804 Cpm	117	1.25		Previously demonstrated activity (in words) [2]: antiviral immunomodulating and anti-tumor activity
CCCCCC[C@H]([C@H](C)OC(=O)CCC(=O)O)n1cnc2c(=O)[nH]cnc21 (relative stereo) [NPT 15457, Erythro-9-(2-Succinoxy-3-Nonyl) Hypoxanthine]	0	18	13	18						25	
CCCCCC[C@H]([C@H](C)OC(C)=O)n1cnc2c(=O)[nH]cnc21 (relative stereo) [NPT 15458, erythro-9-(2-Acetoxy-3-Nonyl)-Hypoxanthine]	40	80	88	26	Yes	436	66,800 Cpm	153	0.93	100	Cleavage to NPT 15392 (in words) ([1]; hemadsorption assay): almost completely cleaved to NPT 15392; S.I. (stimulation index) (mouse spleen cells; 50 ng/ml): 589; Cpm Incorp. +PHA (mouse spleen cells; 50 ng/ml): 81,297 Cpm; Cpm Incorp. -PHA (mouse spleen cells; 50 ng/ml): 138 Cpm; fold induction at 0.05 µg/mL (mouse spleen cells; Mus musculus, Lymphocyte, 50 ng/ml, read-out: D/C (S.I. drug / control)): 1.25; activation at 50 µg/mL (mouse spleen cells; Mus musculus, Lymphocyte, 50 μg/ml, read-out: Increase of PHA induced lymphocyte proliferation): ~25%; Blood Level of NPT 15458 ([3]; animal # 1): 0 μm/ml × 10^3; Blood Level of NPT 15458 ([3]; animal # 2): 0 μm/ml × 10^3; inhibition at 10 µg/mL (L1210 (mouse)): 40%; inhibition at 10 µg/mL (8068 (Human)): 32%; Conversion to NPT 15392 (in words) [4]: appears to occur to a greater extent than the conversion of NPT 15457 to NPT 15392
